Measured values published in ChEMBL document CHEMBL3244068 (J Med Chem, 1978).

What was measured:
[1] = Stability of the compound in acetone assessed as hydrolysis at 66 degC after 30 mins; format: physicochemical; conditions: 0.5 h
[2] = tested on: L1210; assay: Antitumor activity against mouse L1210 cells assessed as dose required to produce T/C of 125% administered for 10 days; format: functional
[3] = tested on: L1210; assay: Antitumor activity against mouse L1210 cells assessed as dose required to produce T/C of 125% administered for 15 days; format: functional
[4] = Ratio of LD50 for rat allografted with rat Walker 256 cells to ED90 for rat Walker 256 cells allografted in rat
[5] = tested on: W256; assay: Antitumor activity against rat Walker 256 cells allografted in rat; format: functional
[6] = species: Rattus norvegicus; assay: Toxicity in rat allografted with rat Walker 256 cells; format: organism-based
[7] = Drug metabolism assessed as log K of Holtzman rat liver esterase-mediated hydrolysis after 5 mins; format: ADME, tissue-based; conditions: isolated protein
[8] = tested on: P388; assay: Antitumor activity against mouse P388 cells allografted in mouse assessed as dose required to produce T/C of 180% administered for 9 days; format: functional
[9] = tested on: P388; assay: Antitumor activity against mouse P388 cells allografted in mouse assessed as dose required to produce T/C of 125% administered for 9 days; format: functional
[10] = tested on: L1210; assay: Antitumor activity against mouse L1210 cells assessed as dose required to produce T/C of 125% administered for 9 days; format: functional
[11] = tested on: L1210; assay: Antitumor activity against mouse L1210 cells assessed as dose required to produce T/C of 125% administered for 8 days; format: functional
[12] = tested on: P388; assay: Antitumor activity against mouse P388 cells allografted in mouse assessed as dose required to produce T/C of 180% administered for 10 days; format: functional
[13] = tested on: P388; assay: Antitumor activity against mouse P388 cells allografted in mouse assessed as dose required to produce T/C of 125% administered for 10 days; format: functional

ClCCN(CCCl)c1ccc(/C=C/c2ccccc2)cc1
log K [1]: -3.95
log(%) [1]: 1.26

CS(=O)(=O)OCCN(CCOS(C)(=O)=O)c1ccc([N+](=O)[O-])cc1
log(1/C) [2]: 3.74

CC(=O)Nc1cc(N(CCOS(C)(=O)=O)CCOS(C)(=O)=O)ccc1N=O
log(1/C) [3]: 6.05

CCOC(=O)c1ccc(N(CCOS(C)(=O)=O)CCOS(C)(=O)=O)cc1
log(1/C) [3]: 4.07

CS(=O)(=O)OCCN(CCOS(C)(=O)=O)c1ccccc1
log(1/C) [3]: 3.97

O=C(Oc1ccc(N(CCBr)CCBr)cc1)c1ccccc1
Ratio [4]: 3.5
log1/CED90 [5]: 5.45
log1/CLD50 [6]: 5.45

Cc1ccccc1C(=O)Oc1ccc(N(CCBr)CCBr)cc1
Ratio [4]: 3.5
log1/CED90 [5]: 4.96
log1/CLD50 [6]: 4.96

Cc1cccc(C)c1C(=O)Oc1ccc(N(CCBr)CCBr)cc1
Ratio [4]: 3.5
log1/CED90 [5]: 3.81
log1/CLD50 [6]: 3.58

CCc1ccccc1C(=O)Oc1ccc(N(CCBr)CCBr)cc1
Ratio [4]: 3.5
log1/CED90 [5]: 4.96
log1/CLD50 [6]: 4.64

CC(C)c1ccccc1C(=O)Oc1ccc(N(CCBr)CCBr)cc1
Ratio [4]: 3.5
log1/CED90 [5]: 4.39
log1/CLD50 [6]: 4.66

Cc1cccc(C(=O)Oc2ccc(N(CCBr)CCBr)cc2)c1
Ratio [4]: 3.5
log1/CED90 [5]: 5.18
log1/CLD50 [6]: 5.16

Cc1ccc(C(=O)Oc2ccc(N(CCBr)CCBr)cc2)cc1
Ratio [4]: 3.5
log1/CED90 [5]: 4.94
log1/CLD50 [6]: 5.32

O=C(Oc1ccc(N(CCBr)CCBr)cc1)c1cccc(Cl)c1
Ratio [4]: 3.5
log1/CED90 [5]: 4.96
log1/CLD50 [6]: 5.11

O=C(Oc1ccc(N(CCBr)CCBr)cc1)c1ccc(Cl)cc1
Ratio [4]: 3.5
log1/CED90 [5]: 4.66
log1/CLD50 [6]: 5.18

COc1ccc(C(=O)Oc2ccc(N(CCBr)CCBr)cc2)cc1
Ratio [4]: 3.5
log1/CED90 [5]: 5.12
log1/CLD50 [6]: 5.21

O=C(Oc1ccc(N(CCBr)CCBr)cc1)c1cccc(C(F)(F)F)c1
Ratio [4]: 3.5
log1/CED90 [5]: 4.99
log1/CLD50 [6]: 5.11

O=C(Oc1ccc(N(CCBr)CCBr)cc1)c1cccc([N+](=O)[O-])c1
Ratio [4]: 3.5
log1/CED90 [5]: 4.67
log1/CLD50 [6]: 5.07

O=C(Oc1ccc(N(CCBr)CCBr)cc1)c1ccc([N+](=O)[O-])cc1
Ratio [4]: 3.5
log1/CED90 [5]: 4.86
log1/CLD50 [6]: 5.37

O=C(Oc1ccc(N(CCCl)CCCl)cc1)c1ccccc1
Ratio [4]: 3.5
log1/CED90 [5]: 4.86
log1/CLD50 [6]: 4.06

Cc1ccccc1C(=O)Oc1ccc(N(CCCl)CCCl)cc1
Ratio [4]: 3.5
log1/CED90 [5]: 4.55
log1/CLD50 [6]: 3.71

Cc1ccc(C(=O)Oc2ccc(N(CCCl)CCCl)cc2)cc1
Ratio [4]: 3.5
log1/CED90 [5]: 4.78
log1/CLD50 [6]: 4.2

Cc1cccc(C)c1C(=O)Oc1ccc(N(CCCl)CCCl)cc1
Ratio [4]: 3.5
log1/CED90 [5]: 3.31
log1/CLD50 [6]: 3.1

O=C(Oc1ccc(N(CCCl)CCCl)cc1)c1cccc(Br)c1
Ratio [4]: 3.5
log1/CED90 [5]: 4.22
log1/CLD50 [6]: 3.84

O=C(Oc1ccc(N(CCCl)CCCl)cc1)c1ccc(Br)cc1
Ratio [4]: 3.5
log1/CED90 [5]: 4.84
log1/CLD50 [6]: 4.19

O=C(Oc1ccc(N(CCCl)CCCl)cc1)c1cccc(Cl)c1
Ratio [4]: 3.5
log1/CED90 [5]: 4.55
log1/CLD50 [6]: 3.95

O=C(Oc1ccc(N(CCCl)CCCl)cc1)c1cccc(F)c1
Ratio [4]: 3.5
log1/CED90 [5]: 4.88
log1/CLD50 [6]: 4.38

O=C(Oc1ccc(N(CCCl)CCCl)cc1)c1ccc(F)cc1
Ratio [4]: 3.5
log1/CED90 [5]: 4.9
log1/CLD50 [6]: 4.21

COc1ccc(C(=O)Oc2ccc(N(CCCl)CCCl)cc2)cc1
Ratio [4]: 3.5
log1/CED90 [5]: 4.89
log1/CLD50 [6]: 4.11

O=C(Oc1ccc(N(CCCl)CCCl)cc1)c1cccc([N+](=O)[O-])c1
Ratio [4]: 3.5
log1/CED90 [5]: 4.81
log1/CLD50 [6]: 4.4

COc1cccc(C(=O)Oc2ccc(N(CCBr)CCBr)cc2)c1
Ratio [4]: 3.5
log1/CLD50 [6]: 5.25

CCN(CC)c1ccc(OC(=O)c2ccc([N+](=O)[O-])cc2)cc1
log K [7]: 0.67

CCN(CC)c1ccc(OC(=O)c2cccc([N+](=O)[O-])c2)cc1
log K [7]: 0.55

CCN(CC)c1ccc(OC(=O)c2ccc(C(F)(F)F)cc2)cc1
log K [7]: 0.45

CCN(CC)c1ccc(OC(=O)c2cccc(C(F)(F)F)c2)cc1
log K [7]: 0.34

CCN(CC)c1ccc(OC(=O)c2cccc(Cl)c2)cc1
log K [7]: 0.32

CCN(CC)c1ccc(OC(=O)c2ccc(Cl)cc2)cc1
log K [7]: 0.2

CCN(CC)c1ccc(OC(=O)c2ccc(C)cc2)cc1
log K [7]: -0.41

CCN(CC)c1ccc(OC(=O)c2cccc(C)c2)cc1
log K [7]: 0.32

CCN(CC)c1ccc(OC(=O)c2ccc(OC)cc2)cc1
log K [7]: -0.49

CCN(CC)c1ccc(OC(=O)c2cccc(OC)c2)cc1
log K [7]: 0.15

CCN(CC)c1ccc(OC(=O)c2ccccc2)cc1
log K [7]: -0.26

CCOC(=O)CCOc1ccccc1N(CCCl)CCCl
log(1/C) [3]: 4.67

O=C(O)c1ccccc1N(CCO)CCCl
log(1/C) [3]: 4.94

CCC(=O)OCC(Br)CBr (stereo not drawn)
log(1/C) [3]: 5.83

ClCCN(CCCl)c1ccc(/N=C/c2ccccc2)cc1
log(1/C) [8]: 5
log(1/C) [9]: 5.33

CS(=O)(=O)OCCN(CCOS(C)(=O)=O)c1ccc([N+](=O)[O-])c(Cl)c1
log(1/C) [3]: 3.02

Cc1ccc(S(=O)(=O)OCCN(CCOS(=O)(=O)c2ccc(C)cc2)c2cccc(F)c2)cc1
log(1/C) [3]: 3.31

Cc1ccc(S(=O)(=O)OCCN(CCOS(=O)(=O)c2ccc(C)cc2)c2ccccc2)cc1
log(1/C) [3]: 3.8

CS(=O)(=O)OCCN(CCOS(C)(=O)=O)c1cccc([N+](=O)[O-])c1
log(1/C) [2]: 3.93

CS(=O)(=O)OCCN(CCOS(C)(=O)=O)c1cccc(C(F)(F)F)c1
log(1/C) [3]: 4.42

CCOC(=O)c1cccc(N(CCOS(C)(=O)=O)CCOS(C)(=O)=O)c1
log(1/C) [2]: 4.63

CS(=O)(=O)OCCN(CCOS(C)(=O)=O)c1cccc(Cl)c1
log(1/C) [2]: 4.85

CCOC(=O)c1cc(N(CCOS(C)(=O)=O)CCOS(C)(=O)=O)ccc1N
log(1/C) [3]: 4.85

Cc1ccc(S(=O)(=O)OCCN(CCOS(=O)(=O)c2ccc(C)cc2)c2ccc(F)cc2)cc1
log(1/C) [10]: 4.2

CC(=O)Nc1cccc(N(CCOS(C)(=O)=O)CCOS(C)(=O)=O)c1
log(1/C) [10]: 5.67

CS(=O)(=O)OCCN(CCOS(C)(=O)=O)c1ccc(N=O)c(Cl)c1
log(1/C) [3]: 6.03

CS(=O)(=O)OCCN(CCOS(C)(=O)=O)c1ccc(N=O)cc1
log(1/C) [11]: 6.13

Cc1cc(N(CCOS(C)(=O)=O)CCOS(C)(=O)=O)ccc1N=O
log(1/C) [2]: 6.4

CCOC(=O)CCCc1ccc(N(CCCl)CCCl)cc1
log K [1]: -3.84
log(%) [1]: 1.36

O=C(O)CCCc1ccc(N(CCCl)CCCl)cc1 [CHLORAMBUCIL]
log1/CED90 [5]: 5.12
log K [1]: -3.65
log1/CLD50 [6]: 4.03

ClCCN(CCCl)c1ccc2ccccc2c1 [CHLORNAPHAZINE]
log(%) [1]: 1.18

NC(Cc1ccc(N(CCCl)CCCl)cc1)C(=O)O (stereo not drawn) [SARCOLYSIN]
log(1/C) [3]: 4.94
log(1/C) [12]: 5.18
log(1/C) [13]: 5.61
